In PubChem BioAssay (NCI):
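Exposure lasted 48 hours, with cells grown in 96-well plates and compounds tested at five concentrations. The concentration for 50% growth inhibition is given as GI50. TGI is the concentration that stops growth completely.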

Assays:
Test in all cases: DTP human tumour cell line panel, 48 h
[1] = test system: SK-MEL-5 melanoma
[2] = test system: SF-539 CNS
[3] = test system: KM12 colon
[4] = test system: SK-MEL-2 melanoma
[5] = test system: OVCAR-5 ovarian
[6] = test system: SK-MEL-28 melanoma
[7] = test system: SNB-75 CNS
[8] = test system: MOLT-4 leukemia
[9] = test system: 786-0 renal
[10] = test system: A549 NSCLC

Structure (SMILES) | GI50 [1] [µM] | TGI [1] [µM] | GI50 [2] [µM] | TGI [2] [µM] | GI50 [3] [µM] | TGI [3] [µM] | GI50 [4] [µM] | TGI [4] [µM] | GI50 [5] [µM] | TGI [5] [µM] | GI50 [6] [µM] | TGI [6] [µM] | GI50 [7] [µM] | TGI [7] [µM] | GI50 [8] [µM] | TGI [8] [µM] | GI50 [9] [µM] | TGI [9] [µM] | GI50 [10] [µM] | TGI [10] [µM]
COc1cc2c(/C=C3\C(=O)N(C)c4ccccc43)c[nH]c2cc1C | 2.36 | > 40 | 4.2 | > 31.2 | 0.735 | > 100 | 10.2 | > 84.1 | 7.94 | > 63.9 | > 22.4 | > 100 | 4.34 | > 100 | 5.83 | > 64 | 4.43 | > 59.6 | 2.39 | > 66.8
COc1cc(CSc2nc3ccc(Cl)cc3c(=O)n2Cc2ccccc2)cc(OC)c1OC | 2.41 | 17.1 | 2.57 | 9.34 | 2.9 | > 100 | 6.57 | 59.4 | 7 | > 100 | 3.05 | 43.9 | 1.15 | 4.09 | 4.41 | > 100 | 7.62 | 41.3 | 4.03 | > 100
C[C@]12Cc3conc3C(O)=C1CC[C@@H]1C2CC[C@@]2(C)C1CC[C@@H]2O (stereo not given in full) | – | 29.9 | – | 44 | – | 70.7 | – | 21.4 | – | > 100 | – | > 100 | – | 31.1 | – | 37.7 | – | > 100 | – | 85.2
COc1ccc(-c2cnc(-c3ccc(OC)cc3)n2-c2cc(OC)c(OC)c(OC)c2)cc1 | 22.7 | 67.4 | 23.9 | 54.9 | 34.9 | > 100 | 32.3 | > 100 | 45.9 | > 100 | 24.4 | 92 | 12.6 | 30.1 | 0.0131 | 0.044 | 24.2 | 61.4 | 23.1 | 82.2
Cn1cnc([N+](=O)[O-])c1Sc1n[nH]c(-c2ccc(Cl)cc2)n1 | – | 29.8 | – | 29.9 | – | 39.2 | – | 29.9 | – | 63.6 | – | 30.3 | – | 50.7 | – | 38.1 | – | 51.5 | – | 77.8
Cc1ccc(/C(=N/NS(=O)(=O)c2cc(C)c(Cl)cc2Cl)Sc2cc(Cl)c(C)cc2S(N)(=O)=O)cc1 | > 100 | > 100 | > 100 | > 100 | > 100 | > 100 | > 100 | > 100 | > 100 | > 100 | > 100 | > 100 | > 100 | > 100 | 17.9 | > 100 | > 100 | > 100 | > 100 | > 100
CCN1/C(=C/C(C)=C/c2sc3ccc4ccccc4c3[n+]2CC)Sc2ccc3ccccc3c21 | 0.123 | 0.352 | 0.227 | 1.01 | 0.136 | 0.276 | 0.193 | 0.586 | 0.486 | 1.93 | 0.165 | 0.329 | 0.205 | 0.761 | 0.164 | 2.15 | 0.268 | 1.09 | 0.0271 | 0.272
NC(=O)c1cn(C2CC(O)C(CO)O2)c2ncnc(N)c12 (stereo not given) | 5.42 | 31.9 | 3.34 | 15.1 | 5.18 | 28.4 | 10.5 | > 28.2 | 9.81 | > 71.6 | 7.28 | > 83.1 | 1.52 | 9.47 | 0.611 | > 100 | 4.15 | 18.9 | 5.2 | 41.1
CC1(C)C(=O)/C=C\C(=O)C(C)(C)C2=CC=C(O2)C(C)(C)C(=O)C(Br)C(Br)C(=O)C(C)(C)C2=CC=C1O2 (stereo not given) | – | > 100 | – | > 100 | – | > 100 | – | > 100 | – | > 100 | – | > 100 | – | > 80.3 | – | 30.6 | – | > 100 | – | > 100
C=CC12CCCCC1CC(C(=O)OC)=C(O)C2 (stereo not given) | – | > 100 | – | > 100 | – | > 100 | – | > 100 | – | > 100 | – | > 100 | – | > 100 | – | > 100 | – | > 100 | – | > 100
O=C1CN=C(c2ccc[nH]2)c2cc(Cl)ccc2N1 | > 100 | > 100 | > 100 | > 100 | > 100 | > 100 | > 100 | > 100 | > 100 | > 100 | > 100 | > 100 | > 100 | > 100 | > 100 | > 100 | > 100 | > 100 | > 100 | > 100
O=CN/C=C/c1ccccc1 | – | > 100 | – | > 100 | – | > 100 | – | > 100 | – | > 100 | – | > 100 | – | > 100 | – | > 100 | – | > 100 | – | > 100
CCOC(=O)C1CC(=O)C=C2CCCCC21 (stereo not given) | – | > 100 | – | > 100 | – | > 100 | – | > 100 | – | > 100 | – | > 100 | – | > 100 | – | > 100 | – | > 100 | – | > 100
C=CCCn1nc(-c2ccccc2)oc1=O | – | > 100 | – | > 100 | – | > 100 | – | > 100 | – | > 100 | – | > 100 | – | > 100 | – | > 100 | – | > 100 | – | > 100
COc1ccc(OC)c(N2CC(O)=C(c3nc4ccccc4s3)C2=N)c1 | 14.7 | 46.6 | 83.8 | > 100 | 39.1 | > 100 | 26.1 | > 100 | > 100 | > 100 | 49.5 | > 100 | 32 | > 100 | 4.16 | > 100 | > 100 | > 100 | 71.2 | > 100
OCc1ccc(-c2nc(-c3ccc4c(c3)OCO4)c(-c3ccccn3)[nH]2)cc1 | > 20 | > 25 | > 25 | > 25 | > 25 | > 25 | > 25 | > 25 | > 22.8 | > 25 | > 25 | > 25 | > 7.04 | > 25 | > 25 | > 25 | > 25 | > 25 | > 25 | > 25
CC(C)(C)c1cc(C[P+](c2ccccc2)(c2ccccc2)c2ccccc2)cc(C(C)(C)C)c1O | 0.244 | 0.716 | 0.854 | 7.83 | 0.364 | 1.51 | 0.257 | 0.585 | 2.5 | 14.3 | 0.637 | 8.21 | 0.369 | 6.18 | 1.41 | 5.19 | 1.81 | 9.73 | 0.392 | 11
CCOC(=O)c1c(NN2CCN(CC(F)(F)F)CC2)oc(/C=C2\C=Nc3ncccc32)c1O | 2.55 | 10.6 | 2.33 | 13.9 | 3.45 | 15.3 | 2.25 | 4.8 | 19.3 | 67.5 | 11 | 29.9 | 0.325 | 11.6 | 2.79 | 9.37 | 3.13 | 18.8 | 5.2 | 49.1
Nc1nc(Sc2ccc([N+](=O)[O-])c3nonc23)c2ncn(C3OC(CO)C(O)C3O)c2n1 (stereo not given) | 2.4 | > 22.4 | 0.738 | > 37.2 | 2.89 | > 64.1 | 0.393 | 8.81 | 1.07 | 13.1 | 11.7 | 26.6 | 0.886 | > 100 | 0.325 | > 37.5 | 0.766 | 14.2 | 4.27 | > 100
CCn1nc(C2CCN(C(=O)CCO)CC2)nc1-c1cnc(N)c(-c2nnc(C(C)(C)C)o2)n1 | 11.5 | 31.3 | 5.74 | > 100 | 14.9 | 45.1 | 30.9 | > 100 | 3.17 | > 100 | 4.78 | > 100 | 0.155 | > 100 | 2.33 | 39.2 | 3.11 | > 100 | 2.26 | > 100
COc1cc(OC)c(C(=O)/C=C/c2ccc(C#N)cc2)c(OC)c1 | 1.97 | 6.95 | 1.28 | 3.85 | 1.58 | 6.55 | 1.46 | 4.43 | 2.13 | 8.4 | 1.92 | 7.61 | 1.27 | 6.62 | 1.44 | 13 | 1.86 | 6.88 | 1.85 | > 50
O=C(Nc1ccc(I)cc1F)c1cc(Br)ccc1O | 0.251 | 0.714 | 0.583 | 3.74 | 2.2 | 5.49 | 0.386 | 2.18 | 4.01 | > 100 | 0.393 | 2.04 | 0.451 | 2.23 | 1.39 | 5.6 | 2.19 | 5.5 | 2.81 | > 100
